Experimental data taken from publication PMC9655037, “Alternation of Organ-Specific Exposure in LPS-Induced Pneumonia Mice after the Inhalation of Tetrandrine Is Governed by Metabolizing Enzyme Suppression and Lysosomal Trapping” (International Journal of Molecular Sciences, 2022).
“And” between values parts separate entries of the source, which are not always exact repeats. Identical values can stand only once. Like-named read-outs stand apart in the source and are kept apart here.

Experiments:
[1] = Metabolic stability of TET in NADPH-supplemented liver microsomes from normal and LPS-induced ALI mice; assay type: in vitro ADME, mouse; details: for half-life at 1 µM: mouse, microsomes, 1.0 µM TET, 0.5 mg/mL protein, 37 °C, read-out: In vitro t1/2
Procedure: Liver and pulmonary microsomes from normal and LPS-induced pulmonary infected mice were isolated according to the conventional differential centrifugation approach. In brief, six normal mice and six acute pneumonia mice (48 h after i.t. administration of LPS) were sacrificed. Lungs and livers were harvested and rinsed with ice NS. The tissues were weighed and homogenized with 50 mM Tris buffer solution (TBS, m:v = 1:3). The prepared homogenate was then immediately centrifuged at 10,000× g at 4 °C for 20 min. The resulting supernatant was further centrifuged at 105,000× g at 4 °C for 60 min to yield mouse liver microsomes (MLM) and mouse pulmonary microsomes (MPM). The sediment was resuspended with storage buffer (50 mM TBS containing 0.25 M sucrose and 20% glycerol) and stored at −80 °C immediately. The protein content of the harvested microsomes was measured following the BCA protein assay protocol.
TET (1 μM, 1% acetonitrile) was incubated in normal or pneumonia mice liver microsomes or pulmonary microsomes (0.5 mg/mL) diluted with 100 mM PBS (pH 7.4) containing MgCl2 (3 mM). After preincubation of 5 min, the reaction was initiated by adding NADPH (final concentration of 1 mM) at 37 °C. Periodic aliquots of the incubation mixture at 0, 15, 30, and 45 min were removed, and the protein was precipitated with ice-cold acetonitrile containing IS. After centrifugation, the supernatant was collected and analyzed for the depletion of TET by LC-MS/MS.
The in vitro t1/2 in mouse liver microsomal incubation was calculated from the semi-log plot of percentage remaining vs. incubation time and intrinsic clearance (CLint,app mL/min/mg protein) was calculated as Equation (2).
(§1) (3) CLint,scaled=CLint,app×45mg microsomes/g liver×g liver/kg body weight (4) CLh,blood=Q×fu,p/Rb/p×CLint/fu,mic/Q+CLint·fu,p/Rb·CLint/fu,mic

[2] = biological target: T1, OATP1B3 (Homo sapiens, UniProt Q9NPD5); assay: Uptake by OATP1B3-expressing HEK293 cells; details: human, 5 min
T1 sequence (Q9NPD5 1-702): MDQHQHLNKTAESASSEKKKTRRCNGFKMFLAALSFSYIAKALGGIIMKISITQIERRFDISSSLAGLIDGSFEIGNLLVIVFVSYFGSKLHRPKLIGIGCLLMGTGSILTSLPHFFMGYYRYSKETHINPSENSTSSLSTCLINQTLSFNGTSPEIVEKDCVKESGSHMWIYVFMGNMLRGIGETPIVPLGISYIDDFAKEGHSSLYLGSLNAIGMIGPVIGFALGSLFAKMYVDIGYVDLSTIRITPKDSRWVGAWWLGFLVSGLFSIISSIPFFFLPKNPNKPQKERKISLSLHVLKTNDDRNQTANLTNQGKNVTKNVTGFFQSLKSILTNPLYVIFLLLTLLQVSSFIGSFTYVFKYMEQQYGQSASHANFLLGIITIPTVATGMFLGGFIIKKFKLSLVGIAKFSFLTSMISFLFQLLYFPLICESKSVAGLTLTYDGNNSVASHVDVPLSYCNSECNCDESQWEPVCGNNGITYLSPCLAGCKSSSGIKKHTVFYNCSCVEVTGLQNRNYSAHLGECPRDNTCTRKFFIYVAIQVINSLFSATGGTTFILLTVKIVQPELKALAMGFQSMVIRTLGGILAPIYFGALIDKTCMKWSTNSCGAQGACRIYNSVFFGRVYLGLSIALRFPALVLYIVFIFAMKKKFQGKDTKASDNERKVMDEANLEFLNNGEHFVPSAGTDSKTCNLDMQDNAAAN
Procedure: Expressing OATP1B1/OATP1B3 or MOCK HEK293 cells were utilized to evaluate whether TET is a substrate of these two SLC transporters. Cell culture was performed as mentioned above. Cells were seeded on 96-well plates at the density of 0.8 × 10^5 cells/well. The culture medium was replaced with a medium containing 5 mM sodium butyrate for 24 h before the transport study to enhance the expression of transporters. For the transport assay, the DMEM media were removed and the cells were washed with pre-warmed Krebs–Henseleit buffer twice (0.1 mL/well). The second washing buffer was kept in the wells and the plate was incubated at 37 °C for 5 min before the uptake assay was initiated. […] The incubation solution was removed and the cells were washed with ice-cold transportation buffer three times (0.1 mL/well). A total of 0.1 mL pure water was added to each well to lyse the cells by repeated freezing and thawing (−196 °C–37 °C, three times). The cell lysate was collected and stored at −40 °C for LC-MS/MS analysis and protein measurement.
In the uptake study of TET by OATP1B1 and OATP1B3 expressing the HEK293 cell line, the uptake clearance (U) of the substrate was calculated according to Equation (5), the transporter-mediated uptake ratio (UR) was calculated by dividing the uptake clearance from transporter-expressing cells to that from the mock cells according to Equation (6), and the inhibition ratio (IR) was calculated according to Equation (7), where p represents the protein content and T is the duration of the incubation time. (5) U=Clysate/p×T (6) UR=U/UMOCK (7) IR=(1−Uwith inhibitor−Umock with inhibitor/Uwithout inhibitor−Umock without inhibitor)×100

[3] = Bidirectional transport in MOCK LLC-PK1 cells; details: pig
Procedure: (§2) MDR1 expressing LLC-PK1 cells or MOCK LLC-PK1 cells were utilized to identify whether P-gp is involved in the efflux transport across the membrane barrier. Cells were cultured as described above. Cells were seeded at a density of 2 × 10^4 in Millicell® 24-well cell culture plates with a 6.5 mm insert (0.4 µm polycarbonate membrane) from Corning (Kennebunk, ME, USA) 7 days before the experiments. On the day of the experiment, transepithelial electrical resistance (TEER) was measured to assess monolayer integrity. After washing the cells twice with HBSS, transport experiments in either the apical-to-basolateral direction (A-B) or the basolateral-to-apical direction (B-A) were conducted. […] After incubating the plates at 37 °C for 2 h, samples from the receiving and donor wells (50 μL) were taken simultaneously. All the samples were stored at −40 °C for LC-MS/MS analysis.
(§3) In the bidirectional transport study in LLC-PK1 cells, the following equations were used to calculate Papp values and the MDR1 efflux ratio.

[4] = biological target: MDR1 (P-gp) (Homo sapiens, UniProt P08183); assay: in vitro
Sequence of MDR1 (P-gp) (P08183 whole entry): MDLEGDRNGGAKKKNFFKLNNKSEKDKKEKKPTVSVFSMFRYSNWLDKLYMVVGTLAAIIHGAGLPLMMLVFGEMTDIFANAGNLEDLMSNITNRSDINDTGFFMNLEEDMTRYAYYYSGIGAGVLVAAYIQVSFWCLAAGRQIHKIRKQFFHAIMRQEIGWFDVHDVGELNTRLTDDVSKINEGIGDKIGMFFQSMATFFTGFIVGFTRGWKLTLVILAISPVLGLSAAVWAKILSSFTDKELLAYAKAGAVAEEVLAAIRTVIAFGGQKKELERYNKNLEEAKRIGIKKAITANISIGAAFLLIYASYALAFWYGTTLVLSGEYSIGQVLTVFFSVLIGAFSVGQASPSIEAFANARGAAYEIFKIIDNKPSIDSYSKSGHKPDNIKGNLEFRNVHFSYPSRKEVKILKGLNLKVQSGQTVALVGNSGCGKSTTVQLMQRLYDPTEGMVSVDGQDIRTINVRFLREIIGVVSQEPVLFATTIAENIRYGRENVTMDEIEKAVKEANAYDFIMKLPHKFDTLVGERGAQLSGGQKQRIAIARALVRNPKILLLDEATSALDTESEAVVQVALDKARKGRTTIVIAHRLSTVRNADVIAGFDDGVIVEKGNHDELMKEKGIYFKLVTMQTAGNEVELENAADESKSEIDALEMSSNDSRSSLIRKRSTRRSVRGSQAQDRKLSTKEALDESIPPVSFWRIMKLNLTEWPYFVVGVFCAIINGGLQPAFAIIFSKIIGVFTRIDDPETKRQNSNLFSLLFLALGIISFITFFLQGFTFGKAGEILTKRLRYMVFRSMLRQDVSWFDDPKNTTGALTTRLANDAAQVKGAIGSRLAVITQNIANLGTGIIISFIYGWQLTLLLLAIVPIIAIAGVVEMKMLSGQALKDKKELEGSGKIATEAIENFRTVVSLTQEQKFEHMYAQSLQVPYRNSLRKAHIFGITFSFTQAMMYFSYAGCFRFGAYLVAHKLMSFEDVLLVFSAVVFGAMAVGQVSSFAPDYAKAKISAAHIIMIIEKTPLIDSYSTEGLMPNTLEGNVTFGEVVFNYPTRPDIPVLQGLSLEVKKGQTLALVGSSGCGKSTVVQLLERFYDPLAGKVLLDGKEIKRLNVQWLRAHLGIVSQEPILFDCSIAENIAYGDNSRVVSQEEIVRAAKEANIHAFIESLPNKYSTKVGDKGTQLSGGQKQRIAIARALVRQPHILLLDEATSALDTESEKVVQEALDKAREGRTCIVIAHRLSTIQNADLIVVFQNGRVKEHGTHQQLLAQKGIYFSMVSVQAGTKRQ
Procedure: as §2, §3

[5] = In vitro experiments for fup, fu,mic and Rb/p used in the well-stirred model; assay type: in vitro ADME
Procedure: as §1

In the case of `COc1ccc2cc1Oc1ccc(cc1)C[C@H]1c3cc(c(OC)cc3CCN1C)Oc1c(OC)c(OC)cc3c1[C@H](C2)N(C)CC3` [TET, Tetrandrine], the “CLhep,blood (hepatic clearance, well-stirred model)” value ([1]; LPS-treated mice liver microsomes) is reported as 1.48 mL/min/kg and 1.48 ± 0.0136 mL/min/kg, the half-life at 1 µM ([1]; pH 7.4, LPS-treated mice liver microsomes) is reported as 1.4 ± 0.013 h and the half-life at 1 µM ([1]; pH 7.4, normal mice liver microsomes) is reported as 0.88 ± 0.0292 h. For the same compound, the “CLhep,blood (hepatic clearance, well-stirred model)” value ([1]; normal mice liver microsomes) was 2.33 mL/min/kg and 2.33 ± 0.075 mL/min/kg, the “Inhibition Ratio” value ([2]; 5 µM) was 20.6 and the “Uptake Clearance” value ([2]; 5 µM) was 120 ± 8.61 nM/min/mg Protein. The “Uptake Ratio” value ([2]; 5 µM) was 1.01, the “Uptake Clearance” value ([2]; 5 μM) was 151 ± 25.5 nM/min/mg Protein and the Papp A→B at 2 h [3] was 1.22 ± 0.07 ×10⁻⁶ cm/s. The Papp B→A at 2 h [3] was 3.83 ± 0.12 ×10⁻⁶ cm/s, the efflux ratio at 2 h ([3]; LLC-PK1) was 3.13 and the Papp A→B at 2 h [4] was 0.52 ± 0.19 ×10⁻⁶ cm/s. It also gave a Papp B→A at 2 h ([4]; human, LLC-PK1) of 14 ± 2.95 ×10⁻⁶ cm/s, an efflux ratio at 2 h ([4]; human, LLC-PK1) of 32.5 and a Rb/p [5] of 2.39. For the same compound, the fup [5] was 0.01 and the fraction unbound ([5]; obtained from in vitro experiments) was 0.18.
